Test systems include HOP-62 NSCLC; OVCAR-5 ovarian; HCC-2998 colon; SK-OV-3 ovarian; A498 renal; CAKI-1 renal; U251 CNS; UACC-62 melanoma; NCI-H460 lung; UO-31 renal.
Test in all cases: inhibition of tumour cell growth, NCI panel, 48 h

Molecules are shown by their SMILES.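 Growth conditions: 96-well plates. Treatment: test compound, 48 hours, 5 concentrations. Analysis: linear interpolation between bracketing concentrations; unreached endpoints set to highest concentration. At the GI50, growth is halved. TGI marks complete inhibition of growth.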

Take `C[C@]12CC[C@H]3[C@@H](C[C@@H]4SC(Nc5ccccc5)=N[C@@]45CC(O)CC[C@]35C)[C@@H]1CCC2O` (stereo not given in full): the GI50 with HOP-62 NSCLC is 2470 nM; in the test on OVCAR-5 ovarian, 2680 nM; in the test on HCC-2998 colon, 1970 nM; in the test on SK-OV-3 ovarian, 5160 nM; in the test on A498 renal, 2160 nM; in the test with CAKI-1 renal it was 2320 nM. The GI50 with U251 CNS is 1360 nM; in the test with UACC-62 melanoma it was 1830 nM; with NCI-H460 lung, 1950 nM; with UO-31 renal, 1670 nM. For the same compound, the TGI in the test on HOP-62 NSCLC is 6540 nM; in the test on OVCAR-5 ovarian, 7860 nM; in the test on HCC-2998 colon, 3560 nM; in the test with SK-OV-3 ovarian, 17900 nM; in the test with A498 renal, 5660 nM; in the test on CAKI-1 renal, 5680 nM. The TGI came out at 2790 nM in the test with U251 CNS, 3960 nM in the test on UACC-62 melanoma, 4040 nM in the test on NCI-H460 lung and 3050 nM in the test on UO-31 renal.

Values taken from PubChem BioAssay (NCI).
